The supplement of paper PMC10627819

How the values were obtained:
S. aureus DSM 20231 [1] = assay: Bliss interaction score (quartile over a dose matrix) (fitness difference); higher = more antagonism (negative = synergy)
Outline: (§1)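 Fitness is OD595 at stationary-phase entry relative to the plate's robust no-drug mean, capped at 1. Single-drug fitness was inferred from combinations. The Bliss score is observed minus product-expected fitness, summarised by quartiles over technical, biological and donor/recipient replicates.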

S. pneumoniae D39V = assay: as above
Outline: as §1

B. subtilis 168 [2] = assay: as above
Outline: as §1

S. aureus Newman [3] = assay: as above
Outline: as §1

S. aureus DSM 20231 [4] = assay: fitness (endpoint OD595 vs no drug) (fraction); higher = more growth
Outline: (§2)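 In 384-well plates at 37 °C, cultures began at OD595 0.01 in 30 µl, with 55 µl used for S. pneumoniae. OD595 readings every 30 min for 14 h were corrected by the first reading. Fitness divides the stationary-phase transition optical density by the robust mean of no-drug control wells. The result is capped at 1.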

B. subtilis 168 [5] = assay: as above
Outline: as §2

S. aureus Newman [6] = assay: as above
Outline: as §2
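Throughout, for Bliss interaction score (quartile over a dose matrix): first quartile when negative (synergy) and third quartile when positive (antagonism).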

CC[C@H]1OC(=O)[C@H](C)[C@@H](O[C@H]2C[C@@](C)(OC)[C@@H](O)[C@H](C)O2)[C@H](C)[C@@H](O[C@@H]2O[C@H](C)C[C@H](N(C)C)[C@H]2O)[C@](C)(O)C[C@@H](C)CN(C)[C@H](C)[C@@H](O)[C@]1(C)O [Azithromycin] + Cc1ncc([N+](=O)[O-])n1CCO [Metronidazole]
Conditions | Bliss interaction score
B. subtilis 168 [2] | 0.0931
S. aureus DSM 20231 [1] | 0.0787
S. aureus Newman [3] | -0.0641
S. pneumoniae D39V | 0.102

fitness
Conditions | partner 0.625 µg/mL | partner 1.25 µg/mL | partner 2.5 µg/mL
B. subtilis 168 [5], first compound 0.25 µg/mL | 0.917 | 0.916 | 0.897
B. subtilis 168 [5], first compound 0.5 µg/mL | – | – | 0.878
S. aureus DSM 20231 [4], first compound 0.125 µg/mL | 0.932 | 0.993 | ≥ 1
S. aureus DSM 20231 [4], first compound 0.25 µg/mL | 0.928 | 0.982 | 0.949
S. aureus Newman [6], first compound 0.125 µg/mL | 0.896 | 0.915 | 0.947
S. aureus Newman [6], first compound 0.25 µg/mL | 0.831 | 0.906 | 0.823
S. aureus Newman [6], first compound 0.5 µg/mL | 0.73 | – | 0.67

fitness, S. aureus Newman [6], one replicate
Conditions | first compound 0.125 µg/mL | first compound 0.25 µg/mL | first compound 0.5 µg/mL
partner 0.781 µg/mL | 0.882 | 0.942 | 0.659
partner 1.562 µg/mL | 0.875 | 0.924 | 0.642
partner 3.124 µg/mL | 0.859 | 0.928 | 0.635

CC[C@H]1OC(=O)[C@H](C)[C@@H](O[C@H]2C[C@@](C)(OC)[C@@H](O)[C@H](C)O2)[C@H](C)[C@@H](O[C@@H]2O[C@H](C)C[C@H](N(C)C)[C@H]2O)[C@](C)(O)C[C@@H](C)CN(C)[C@H](C)[C@@H](O)[C@]1(C)O [Azithromycin] + Cc1onc(-c2ccccc2)c1C(=O)N[C@@H]1C(=O)N2[C@@H]1SC(C)(C)[C@@H]2C(=O)O [Oxacillin]
Conditions | Bliss interaction score
B. subtilis 168 [2] | 0.0492
S. aureus DSM 20231 [1] | -0.0461
S. aureus Newman [3] | 0.0591
S. pneumoniae D39V | 0.0949

fitness
Conditions | first compound 0.125 µg/mL | first compound 0.25 µg/mL | first compound 0.5 µg/mL | first compound 1 µg/mL
B. subtilis 168 [5], partner 0.002 µg/mL | – | 0.881 | 0.87 | 0.535
B. subtilis 168 [5], partner 0.004 µg/mL | – | 0.851 | 0.818 | 0.503
B. subtilis 168 [5], partner 0.0078 µg/mL | – | ≥ 1 | 0.888 | –
B. subtilis 168 [5], partner 0.008 µg/mL | – | 0.824 | 0.842 | 0.453
B. subtilis 168 [5], partner 0.0155 µg/mL | – | 0.964 | 0.887 | –
B. subtilis 168 [5], partner 0.031 µg/mL | – | 0.983 | 0.908 | –
S. aureus DSM 20231 [4], partner 0.0156 µg/mL | 0.722 | 0.786 | – | –
S. aureus DSM 20231 [4], partner 0.0312 µg/mL | 0.617 | 0.62 | 0.183 | –
S. aureus DSM 20231 [4], partner 0.0625 µg/mL | 0.482 | 0.54 | 0.379 | –
S. aureus Newman [6], partner 0.0156 µg/mL | 0.723 | 0.726 | – | –
S. aureus Newman [6], partner 0.0312 µg/mL | 0.715 | 0.725 | 0.365 | –
S. aureus Newman [6], partner 0.0625 µg/mL | 0.624 | 0.622 | 0.31 | –

fitness, B. subtilis 168 [5], one replicate
Conditions | first compound 0.5 µg/mL | first compound 1 µg/mL | first compound 2 µg/mL
partner 0.075 µg/mL | 0.582 | 0.318 | 0.0267
partner 0.15 µg/mL | 0.037 | 0.0238 | 0.016
partner 0.3 µg/mL | 0.0266 | 0.0264 | 0.0201
